Test [1] deals with Erysiphe graminis. Put plainly: in vivo effect against powdery mildew on sprayed plants (Example 5, Table V). As to conditions: triadimefon 50 WP, benomyl 50 WP, 6 days after infection. On the procedure: (§1) The in vivo effect of various mixtures of triadimefon 50 WP and benomyl 50 WP was observed against powders mildew (Erysiphe graminis). The plants were grown in plots at 20° C., under a relative humidity of 98% for 7 days. The one-week old plant were then sprayed with the test composition and after drying were […] with Erysiphe graminis. After incubation for 6 days the results were evaluated.

In test [2] the test system is Erysiphe graminis. Put plainly: in vivo effect against powdery mildew on sprayed plants (Example 6, Table VI). As to conditions: fenapronil 25 EC, benomyl 50 WP, 6 days after infection. On the procedure: as §1
The procedure described in Example 5 was used but fenapronil 25 EC and benomyl 50 WP were tested. The following results have been obtained.

In test [3] the test system is lipid and sterol synthesis. As to conditions: mode of action; cited from earlier work.
For test [4], the system named is various fungi. Kind of test: interaction / activity against various fungi in vitro, overall result in words. The format is cell-based.
The test system of test [5] is fungi which are sensitive to them. The following applies: Fritz et al. 1977; cited from earlier work.
Test [6] relates to obligate parasites such as real powdery mildew, blight, rust. As to conditions: cited from earlier work.

SMILES strings stand for the structures.

For the molecule `CCCCNC(=O)n1c(NC(=O)OC)nc2ccccc21` [benomyl, methyl 1-(butylcarbamoyl)-2-benzimidazolecarbamate], the Extent of infection in test [1] (concentration 3%) amounted to 32.2%; in test [1] (concentration 6%) it was 23.3%; in test [1] (concentration 12%), 16.3%; in test [2] (concentration 12 ppm), 78%; in test [2] (concentration 25 ppm), 64%; in test [2] (concentration 50 ppm), 56%.

In the case of `CCCCC(C#N)(Cn1ccnc1)c1ccccc1` (stereo not drawn) [fenapronil, 1H-α-butyl-α-phenylimidazol-1-yl-propanenitrile], the Extent of infection in test [2] (concentration 12 ppm) is listed as 43%; in test [2] (concentration 25 ppm), 23%; in test [2] (concentration 50 ppm), 14%. For the same molecule, the “inhibition of lipid and sterol synthesis” value in test [3] was “inhibiting lipid and sterol synthesis”. The activity alone result in test [4] is “extremely potent alone and has a wide field of activity”.

`CC(C)NC(=O)N1CC(=O)N(c2cc(Cl)cc(Cl)c2)C1=O` [promidion, 3-(3,5-dichlorophenyl)-2,4-dioxo-1-(N-isopropyl)-imidazolinecarboxamide]: the “accumulation of fatty acids and triglycerides” value in test [5] was “induce an accumulation of fatty acids and triglycerides”.

With `CC(C)(C)C(=O)C(Oc1ccc(Cl)cc1)n1cncn1` (stereo not shown) [triadimefon, 1-(4-chlorophenoxy)-3,3-dimethyl-1-(1H)-(1,2,4-triazol-1-yl)buthan-2-one], the “activity against obligate parasites” value in test [6] was “effective against obligate parasites such as real powdery mildew, blight, rust”. The Extent of infection stood at 73.5% in test [1] (concentration 3%), 66.0% in test [1] (concentration 6%) and 40.6% in test [1] (concentration 12%). Moreover, the “inhibition of lipid and sterol synthesis” value in test [3] was “inhibiting lipid and sterol synthesis”. Also, the activity alone result in test [4] is on record as “entirely ineffective against the fungi tested in vitro”.

On to `C=CC1(C)OC(=O)N(c2cc(Cl)cc(Cl)c2)C1=O` (stereo not shown) [vinclosolin, 3-(3,5-dichlorophenyl)-5-methyl-5-vinyl-1,3-oxazolidine-2,4-dione], for which the “accumulation of fatty acids and triglycerides” value in test [5] was “induce an accumulation of fatty acids and triglycerides”.
